Measurements: US7230001B1, “Arylalkane, arylalkene and aryl azaalkane, medicaments containing said compounds and method for the production thereof” (Boehringer Ingelheim Pharma GmbH & Co. KG, priority 1999, dated 2007)

Row | SMILES | melting point
1 | Nc1c(Br)cc(C(=O)CCC(=O)N2CCN(c3nc4ccccc4[nH]c3=O)CC2)cc1Br [compound 61, 3-{1-[4-(4-amino-3,5-dibromophenyl)-1,4-dioxobutyl]-4-piperazinyl}-2(1H)-quinoxalinone] | 246 to 252 °C
2 | Nc1c(Br)cc(C(=O)CCC(=O)N2CCN(c3cc4ccccc4[nH]c3=O)CC2)cc1Br [compound 59, 3-{1-[4-(4-amino-3,5-dibromophenyl)-1,4-dioxobutyl]-4-piperazinyl}-2(1H)-quinolinone] | 272 to 274 °C (dec.)
3 | CNc1ccc(C(=O)CCC(=O)N2CCC(N3Cc4ccccc4NC3=O)CC2)cc1[N+](=O)[O-] [compound 27, 3,4-dihydro-3-{1-[1,4-dioxo-4-(4-methylamino-3-nitrophenyl)butyl]-4-piperidinyl}-2(1H)-quinazolinone] | 258 to 259 °C (dec.)
4 | COc1ccc(C(=O)CCC(=O)N2CCC(N3Cc4ccccc4NC3=O)CC2)cc1 [compound 25, 3,4-dihydro-3-{1-[1,4-dioxo-4-(4-methoxyphenyl)butyl]-4-piperidinyl}-2(1H)-quinazolinone] | 171 to 172 °C
5 | Nc1ccc(C(=O)CCC(=O)N2CCC(n3cc(-c4ccccc4)[nH]c3=O)CC2)cc1Br [compound 24, 1-{1-[4-(4-amino-3-bromophenyl)-1,4-dioxobutyl]-4-piperidinyl}-1,3-dihydro-4-phenyl-2(2H)-imidazolone] | 267 °C
6 | CC(=O)Nc1ccc(C(=O)CCC(=O)N2CCC(n3c(=O)[nH]c4ccccc43)CC2)cc1Br [compound 19, 1-{1-[4-(4-acetylamino-3-bromophenyl)-1,4-dioxobutyl]-4-piperidinyl}-1,3-dihydro-2(2H)-benzimidazolone] | 128 °C
7 | CC(=O)Nc1ccc(C(=O)CCC(=O)N2CCC(n3cc(-c4ccccc4)[nH]c3=O)CC2)cc1Br [compound 21, 1-{1-[4-(4-acetylamino-3-bromophenyl)-1,4-dioxobutyl]-4-piperidinyl}-1,3-dihydro-4-phenyl-2(2H)-imidazolone] | 243 °C
8 | Nc1c(Br)cc(C(=O)CCC(=O)N2CCC(N3Cc4cccnc4NC3=O)CC2)cc1Br [compound 13, 3-{1-[4-(4-amino-3,5-dibromophenyl)-1,4-dioxobutyl]-4-piperidinyl}-3,4-dihydro-2(1H)-pyrido[2,3-d]pyrimidinone] | > 225 °C
9 | CC(=O)Nc1ccc(C(=O)CCC(=O)N2CCC(N3Cc4ccccc4NC3=O)CC2)cc1Br [compound 18, 3-{1-[4-(4-acetylamino-3-bromophenyl)-1,4-dioxobutyl]-4-piperidinyl}-3,4-dihydro-2(1H)-quinazolinone] | 243 °C
10 | O=C(CCC(=O)N1CCC(N2Cc3ccccc3NC2=O)CC1)c1ccc(Cl)cc1 [compound 26, 3,4-dihydro-3-{1-[4-(4-chlorophenyl)-1,4-dioxobutyl]-4-piperidinyl}-2(1H)-quinazolinone] | 237 to 238 °C
11 | Nc1c(Br)cc(C(=O)CCC(=O)N2CCC(N3Cc4cnccc4NC3=O)CC2)cc1Br [compound 43, 3-{1-[4-(4-amino-3,5-dibromophenyl)-1,4-dioxobutyl]-4-piperidinyl}-3,4-dihydro-2(1H)-pyrido[4,3-d]pyrimidinone] | > 250 °C
12 | O=C(CCC(=O)N1CCC(N2Cc3ccccc3NC2=O)CC1)c1ccc(Cl)c([N+](=O)[O-])c1 [compound 28, 3,4-dihydro-3-{1-[4-(4-chloro-3-nitrophenyl)-1,4-dioxo-butyl]-4-piperidinyl}-2(1H)-quinazolinone] | 207 to 209 °C
13 | Nc1c(Br)cc(C(=O)CCC(=O)N2CCC(N3Cc4ccncc4NC3=O)CC2)cc1Br [compound 42, 3-{1-[4-(4-amino-3,5-dibromophenyl)-1,4-dioxobutyl]-4-piperidinyl}-3,4-dihydro-2(1H)-pyrido[3,4-d]pyrimidinone] | > 250 °C
14 | COc1cc2c(cc1OC)NC(=O)N(C1CCN(C(=O)CCC(=O)c3cc(Br)c(N)c(Br)c3)CC1)C2 [compound 29, 3-{1-[4-(4-amino-3,5-dibromophenyl)-1,4-dioxobutyl]-4-piperidinyl}-3,4-dihydro-6,7-dimethoxy-2(1H)-quinazolinone] | 256 to 258 °C

Further lines, results first:

Row | melting point | SMILES
15 | 212 to 214 °C | O=C(CCC(=O)N1CCC(N2Cc3ccccc3NC2=O)CC1)c1cc(Br)cc(Br)c1 [compound 65, 3-{1-[4-(3,5-dibromophenyl)-1,4-dioxobutyl]-4-piperidinyl}-3,4-dihydro-2(1H)-quinazolinone]
16 | 162.5 to 163.5 °C | Nc1c(Br)cc(CCCC(=O)N2CCC(n3cc(-c4ccccc4)[nH]c3=O)CC2)cc1Br [compound 64, 1-{1-[4-(4-amino-3,5-dibromophenyl)-1-oxobutyl]-4-piperidinyl}-1,3-dihydro-4-phenyl-2(2H)-imidazolone]
17 | 200 °C | O=C(CCC(=O)N1CCC(N2Cc3ccccc3NC2=O)CC1)c1ccc(-c2ccccc2)cc1 [compound 62, 3-{1-[4-(4-biphenylyl)-1,4-dioxobutyl]-4-piperidinyl}-3,4-dihydro-2(1H)-quinazolinone]
18 | 164 to 166 °C | O=C(CCC(=O)N1CCC(N2Cc3ccccc3NC2=O)CC1)c1ccc(F)cc1 [compound 67, 3-{1-[1,4-dioxo-4-(4-fluorophenyl)butyl]-4-piperidinyl}-3,4-dihydro-2(1H)-quinazolinone]
19 | 174 to 175 °C | COc1ccccc1C(=O)CCC(=O)N1CCC(N2Cc3ccccc3NC2=O)CC1 [compound 66, 3-{1-[1,4-dioxo-4-(2-methoxyphenyl)butyl]-4-piperidinyl}-3,4-dihydro-2(1H)-quinazolinone]
20 | 191 to 193 °C | N#Cc1ccc(C(=O)CCC(=O)N2CCC(N3Cc4ccccc4NC3=O)CC2)cc1 [compound 72, 3-{1-[4-(4-cyanophenyl)-1,4-dioxobutyl]-4-piperidinyl}-3,4-dihydro-2(1H)-quinazolinone]
